The conditions of the data set: 101 kPa, Liquid, Pendant drop method.

± gives the expanded uncertainty stated by the source.

As to `CCCCCC[n+]1ccn(C)c1.O=S(=O)([N-]S(=O)(=O)C(F)(F)F)C(F)(F)F` + CCCCCC, the interfacial tension reads like this: (293 K) 5.19 ± 0.14 mN/m; (298 K) 5.1 ± 0.13 mN/m; (303 K) 4.99 ± 0.13 mN/m; (308 K) 4.88 ± 0.13 mN/m; (313 K) 4.79 ± 0.13 mN/m.

Take `CCCCCC[n+]1ccn(C)c1.O=S(=O)([N-]S(=O)(=O)C(F)(F)F)C(F)(F)F` + CCCCCCCCCC: the interfacial tension runs as follows: (293 K) 6.59 ± 0.11 mN/m; (298 K) 6.47 ± 0.11 mN/m; (303 K) 6.36 ± 0.11 mN/m; (308 K) 6.24 ± 0.11 mN/m; (313 K) 6.11 ± 0.11 mN/m.

In the case of `CCCCCCCCCCn1cc[n+](C)c1.O=S(=O)([N-]S(=O)(=O)C(F)(F)F)C(F)(F)F` + O, the interfacial tension runs as follows: (293 K) 17.71 ± 0.14 mN/m; (298 K) 17.41 ± 0.14 mN/m; (303 K) 17.09 ± 0.14 mN/m; (308 K) 16.75 ± 0.13 mN/m; (313 K) 16.41 ± 0.13 mN/m; (318 K) 16.05 ± 0.13 mN/m. Besides, the interfacial tension (323 K) amounted to 15.66 ± 0.13 mN/m.

For the compound `CCCCCC[n+]1ccn(C)c1.O=S(=O)([N-]S(=O)(=O)C(F)(F)F)C(F)(F)F` + O, the interfacial tension is, setting by setting: (293 K) 15.39 ± 0.13 mN/m; (298 K) 14.82 ± 0.13 mN/m; (303 K) 14.49 ± 0.13 mN/m; (308 K) 14.17 ± 0.13 mN/m; (313 K) 14.01 ± 0.12 mN/m; (318 K) 13.78 ± 0.12 mN/m. The interfacial tension (323 K) amounted to 13.45 ± 0.12 mN/m.

Consider `CCn1cc[n+](C)c1.O=S(=O)([N-]S(=O)(=O)C(F)(F)F)C(F)(F)F` + O, for which the interfacial tension reads like this: (293 K) 10.04 ± 0.11 mN/m; (298 K) 9.85 ± 0.11 mN/m; (303 K) 9.51 ± 0.11 mN/m; (308 K) 9.29 ± 0.11 mN/m; (313 K) 9.05 ± 0.11 mN/m; (318 K) 8.79 ± 0.11 mN/m. Under “323 K”, the interfacial tension was found to be 8.61 ± 0.11 mN/m.

Consider `CCCCn1cc[n+](C)c1.O=S(=O)([O-])C(F)(F)F` [1-butyl-3-methylimidazolium trifluoromethanesulfonate] + CCCCCC, for which the interfacial tension is, setting by setting: (293 K) 9.07 ± 0.19 mN/m; (298 K) 8.9 ± 0.19 mN/m; (303 K) 8.74 ± 0.18 mN/m; (308 K) 8.58 ± 0.18 mN/m; (313 K) 8.43 ± 0.18 mN/m.

On to `CCCCn1cc[n+](C)c1.O=C([O-])C(F)(F)F` [1-butyl-3-methylimidazolium trifluoroacetate] + CCCCCCCC, for which the interfacial tension is 9.38 ± 0.12 mN/m (293 K); 9.29 ± 0.12 mN/m (298 K); 9.21 ± 0.12 mN/m (303 K); 9.11 ± 0.12 mN/m (308 K); 8.98 ± 0.11 mN/m (313 K).

For the origin of these results see the NIST ThermoML archive (doi:10.1016/j.fluid.2010.02.022).
